This note sets out measurements from patent US20240376074A1, “NAMPT INHIBITORS AND USES THEREOF” (Remedy Plan, Inc., priority 2021, published 2024).

Structures are written as SMILES.

The target in the experiment is T1, NAMPT (Homo sapiens, UniProt P43490).
T1 construct: purchased Abcam ab221819
T1 sequence (P43490 whole entry): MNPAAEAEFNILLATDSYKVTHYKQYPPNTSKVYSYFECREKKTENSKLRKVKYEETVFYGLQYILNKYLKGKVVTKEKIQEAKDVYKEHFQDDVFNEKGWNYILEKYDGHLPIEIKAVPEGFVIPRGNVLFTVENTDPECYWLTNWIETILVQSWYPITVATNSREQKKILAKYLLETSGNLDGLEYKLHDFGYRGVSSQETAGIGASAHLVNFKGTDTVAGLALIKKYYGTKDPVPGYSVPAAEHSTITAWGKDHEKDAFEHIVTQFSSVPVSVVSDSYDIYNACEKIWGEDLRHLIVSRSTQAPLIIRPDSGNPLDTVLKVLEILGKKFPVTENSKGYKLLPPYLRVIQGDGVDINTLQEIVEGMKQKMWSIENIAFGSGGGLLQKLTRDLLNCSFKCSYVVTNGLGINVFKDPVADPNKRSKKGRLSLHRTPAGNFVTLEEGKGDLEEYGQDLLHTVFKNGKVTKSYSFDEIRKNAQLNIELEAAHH
The experiment is described as follows: NAMPT Activity Assay (Abcam #ab221819). It counts as biochemical. The note with it: purified NAMPT, percent inhibition from OD450 nm; compound concentration not given. On the procedure:
The NAMPT Activity Assay (Abcam #ab221819) was performed following manufacturers two-step reaction protocol. Briefly, compounds were added to a clear 96-well plate using the HP D300e Digital Dispenser. Purified NAMPT was added to all wells except the No NAMPT controls. Reaction Mix #1 was added to each well and the plate was incubated at 30*C for 1 hr followed by the addition of Reaction Mix #2. Absorbance was measured at OD450 nm using a multimode plate reader. Readings were recorded for 5 minutes and percent inhibition was calculated using: (1-(OD450 nm compound/OD450nm no drug))*100.
For `CC(=O)N(CC1CC1)c1ccc(-c2ccc(NC(=O)COc3ccccc3)cn2)cc1Cl` [I-T2328, N-[6-[4-[acetyl(cyclopropylmethyl)amino]-3-chloro-phenyl]-3-pyridyl]-2-phenoxy-acetamide], the “NAMPT Inhibition Code*” value is listed as “C (C = ≥66% inhibition)”.

Turning to `CC(=O)N(CC1CC1)c1ccc(-c2ccc(C(=O)NCc3nccs3)cn2)cc1Cl` [I-T2356, 6-[4-[acetyl(cyclopropylmethyl)amino]-3-chloro-phenyl]-N-(thiazol-2-ylmethyl)pyridine-3-carboxamide], the “NAMPT Inhibition Code*” value is reported as “A (*A = <33% inhibition)”.

Take `CC(=O)N(CC1CC1)c1ccc(-c2ccc(C(=O)NC3Cc4ccc(Br)cc4C3)cn2)cc1Cl` (centres unmarked) [I-T2153, 6-[4-[Acetyl(cyclopropylmethyl)amino]-3-chloro-phenyl]-N-(5-bromoindan-2-yl)pyridine-3-carboxamide]: the “NAMPT Inhibition Code*” value is “A (*A = <33% inhibition)”.

`CC(=O)N(CC1CC1)c1ccc(-c2ccc(C(=O)NC3Cc4ccccc4C3)cn2)cc1Cl` [I-T2152, 6-[4-[Acetyl(cyclopropylmethyl)amino]-3-chloro-phenyl]-N-indan-2-yl-pyridine-3-carboxamide]: the “NAMPT Inhibition Code*” value is given as “B (B = >33 to <66% inhibition)”.

`CC(=O)N(CC(F)F)c1ccc(-c2ccc(C(=O)NCCCc3cc[nH]n3)cn2)cc1Cl` [I-T2287, 6-[4-[Acetyl(2,2-difluoroethyl)amino]-3-chloro-phenyl]-N-[3-(1H-pyrazol-3-yl)propyl]pyridine-3-carboxamide]: the “NAMPT Inhibition Code*” value is on record as “C (C = ≥66% inhibition)”.

As for `CC(=O)N(CC1CC1)c1ccc(-c2ccc(NC(=O)Cc3cccnc3)cn2)cc1Cl` [I-T2267, N-[6-[4-[acetyl(cyclopropylmethyl)amino]-3-chloro-phenyl]-3-pyridyl]-2-(3-pyridyl)acetamide], the “NAMPT Inhibition Code*” value is “C (C = ≥66% inhibition)”.

Turning to `CC(=O)N(CC1CC1)c1ccc(-c2ccc(C(=O)NCc3ccsc3)cn2)cc1Cl` [I-T2149, 6-[4-[Acetyl(cyclopropylmethyl)amino]-3-chloro-phenyl]-N-(3-thienylmethyl)pyridine-3-carboxamide], the “NAMPT Inhibition Code*” value is “B (B = >33 to <66% inhibition)”.

For the compound `CC(=O)N(CC1CC1)c1ccc(-c2ccc(NC(=O)Cc3ccc(F)cc3)cn2)cc1Cl` [I-T2390, N-[6-[4-[acetyl(cyclopropylmethyl)amino]-3-chloro-phenyl]-3-pyridyl]-2-(4-fluorophenyl)acetamide], the “NAMPT Inhibition Code*” value is recorded as “B (B = >33 to <66% inhibition)”.

In the case of `CC(=O)N(CC1CC1)c1ccc(-c2ccc(C(=O)NCc3ccc(C(F)F)nc3)cn2)cc1Cl` [I-T2397, 6-[4-[acetyl(cyclopropylmethyl)amino]-3-chloro-phenyl]-N-[[6-(difluoromethyl)-3-pyridyl]methyl]pyridine-3-carboxamide], the “NAMPT Inhibition Code*” value was “C (C = ≥66% inhibition)”.

With `CC(=O)N(CC1CC1)c1ccc(-c2ccc(C(=O)NCc3cnccn3)cn2)cc1Cl` [I-T2154, 6-[4-[Acetyl(cyclopropylmethyl)amino]-3-chloro-phenyl]-N-(pyrazin-2-ylmethyl)pyridine-3-carboxamide], the “NAMPT Inhibition Code*” value was “A (*A = <33% inhibition)”.

As to `CC(=O)N(CC1CC1)c1ccc(-c2ccc(C(=O)Nc3cnc4nccn4c3)cn2)cc1Cl` [I-T2140, 6-[4-[Acetyl(cyclopropylmethyl)amino]-3-chloro-phenyl]-N-imidazo[1,2-a]pyrimidin-6-yl-pyridine-3-carboxamide], the “NAMPT Inhibition Code*” value was “C (C = ≥66% inhibition)”.

On to `CC(=O)N(CC1CC1)c1ccc(-c2ccc(C(=O)NCCC3CCCCC3)cn2)cc1Cl` [I-T2348, 6-[4-[acetyl(cyclopropylmethyl)amino]-3-chloro-phenyl]-N-(2-cyclohexylethyl)pyridine-3-carboxamide], for which the “NAMPT Inhibition Code*” value is “C (C = ≥66% inhibition)”.

`CC(=O)N(CC1CC1)c1ccc(-c2ccc(C(=O)N3Cc4ccc(F)cc4C3)cn2)cc1Cl` [I-T2336, N-[2-chloro-4-[5-(5-fluoroisoindoline-2-carbonyl)-2-pyridyl]phenyl]-N-(cyclopropylmethyl) acetamide]: the “NAMPT Inhibition Code*” value is “C (C = ≥66% inhibition)”.

Take `COC(=O)c1cc(-c2ccc(C(=O)NCCCc3cn[nH]c3)cn2)ccc1N(CC1CC1)C(C)=O` [I-T2298, Methyl 2-[acetyl(cyclopropylmethyl)amino]-5-[5-[3-(1H-pyrazol-4-yl)propylcarbamoyl]-2-pyridyl]benzoate]: the “NAMPT Inhibition Code*” value is “C (C = ≥66% inhibition)”.

For the compound `CC(=O)N(CC1CC1)c1ccc(-c2ccc(C(=O)NCCCc3cc[nH]n3)cn2)cc1C#N` [I-T2313, 6-[4-[acetyl(cyclopropylmethyl)amino]-3-cyano-phenyl]-N-[3-(1H-pyrazol-5-yl)propyl]pyridine-3-carboxamide], the “NAMPT Inhibition Code*” value was “C (C = ≥66% inhibition)”.

`CC(=O)N(CC1CC1)c1ccc(-c2ccc(NC(=O)/C=C/c3cccnc3)cn2)cc1Cl` [I-T2124, (E)-N-[6-[4-[acetyl(cyclopropylmethyl)amino]-3-chloro-phenyl]-3-pyridyl]-3-(3-pyridyl)prop-2-enamide]: the “NAMPT Inhibition Code*” value was “C (C = ≥66% inhibition)”.

Turning to `CCOc1ccc(CNC(=O)c2ccc(-c3ccc(N(CC4CC4)C(C)=O)c(Cl)c3)nc2)cn1` [I-T2373, 6-[4-[acetyl(cyclopropylmethyl)amino]-3-chloro-phenyl]-N-[(6-ethoxy-3-pyridyl)methyl]pyridine-3-carboxamide], the “NAMPT Inhibition Code*” value was “A (*A = <33% inhibition)”.

For `CC(=O)N(CC1CC1)c1ccc(-c2ccc(C(=O)Nc3ccc4[nH]cnc4c3)cn2)cc1Cl` [I-T2137, 6-[4-[Acetyl(cyclopropylmethyl)amino]-3-chloro-phenyl]-N-(1H-benzimidazol-5-yl)pyridine-3-carboxamide], the “NAMPT Inhibition Code*” value is listed as “C (C = ≥66% inhibition)”.

As to `CC(=O)N(CC1CC1)c1ccc(-c2ccc(C(=O)NCCc3c[nH]cn3)cn2)cc1Cl` [I-T2150, 6-[4-[Acetyl(cyclopropylmethyl)amino]-3-chloro-phenyl]-N-[2-(1H-imidazol-4-yl)ethyl]pyridine-3-carboxamide], the “NAMPT Inhibition Code*” value is listed as “C (C = ≥66% inhibition)”.

As for `CC(=O)N(CC1CC1)c1ccc(-c2ccc(NC(=O)C(F)c3ccccc3)cn2)cc1Cl` (centres unmarked) [I-T2331, N-[6-[4-[acetyl(cyclopropylmethyl)amino]-3-chloro-phenyl]-3-pyridyl]-2-fluoro-2-phenyl-acetamide], the “NAMPT Inhibition Code*” value is recorded as “B (B = >33 to <66% inhibition)”.

For the compound `CC(=O)N(CC(F)F)c1ccc(-c2ccc(NC(=O)C3CC3c3cccnc3)cn2)cc1Cl` (centres unmarked) [I-T2294, N-[6-[4-[acetyl(2,2-difluoroethyl)amino]-3-chloro-phenyl]-3-pyridyl]-2-(3-pyridyl)cyclopropane carboxamide], the “NAMPT Inhibition Code*” value is listed as “C (C = ≥66% inhibition)”.

For the compound `COC(=O)c1cc(-c2ccc(C(=O)NCCCc3cc[nH]n3)cn2)ccc1N(CC1CC1)C(C)=O` [I-T2299, Methyl 2-[acetyl(cyclopropylmethyl)amino]-5-[5-[3-(1H-pyrazol-3-yl)propylcarbamoyl]-2-pyridyl]benzoate], the “NAMPT Inhibition Code*” value was “C (C = ≥66% inhibition)”.

As for `CC(=O)N(CC1CC1)c1ccc(-c2ccc(C(=O)NCc3cccs3)cn2)cc1Cl` [I-T2352, 6-[4-[acetyl(cyclopropylmethyl)amino]-3-chloro-phenyl]-N-(2-thienylmethyl)pyridine-3-carboxamide], the “NAMPT Inhibition Code*” value is given as “B (B = >33 to <66% inhibition)”.
